Drawing on ChEMBL document CHEMBL5291721, “A preclinical secondary pharmacology resource illuminates target-adverse drug reaction associations of marketed drugs” (Nat Commun, 2023), this text covers AC50 for 19 compounds.

Assay [1] concerns the target Cannabinoid receptor 1 (Homo sapiens, UniProt P21554).
The target of assay [2] is T1, Neuropeptide Y receptor type 1 (Homo sapiens, UniProt P25929).
T1 sequence (P25929 whole entry): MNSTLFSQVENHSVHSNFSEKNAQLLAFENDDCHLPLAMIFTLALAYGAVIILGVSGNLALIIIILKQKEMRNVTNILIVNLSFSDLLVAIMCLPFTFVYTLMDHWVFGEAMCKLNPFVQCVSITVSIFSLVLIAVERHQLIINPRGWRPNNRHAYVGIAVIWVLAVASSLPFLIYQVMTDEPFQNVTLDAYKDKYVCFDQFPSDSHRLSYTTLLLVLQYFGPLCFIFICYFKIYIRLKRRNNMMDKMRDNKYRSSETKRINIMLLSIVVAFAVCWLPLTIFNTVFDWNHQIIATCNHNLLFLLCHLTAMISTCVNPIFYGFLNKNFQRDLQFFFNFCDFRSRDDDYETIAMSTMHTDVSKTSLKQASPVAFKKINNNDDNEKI

The target of assay [3] is T2, Thromboxane A2 receptor (Homo sapiens, UniProt P21731).
T2 sequence (P21731 whole entry): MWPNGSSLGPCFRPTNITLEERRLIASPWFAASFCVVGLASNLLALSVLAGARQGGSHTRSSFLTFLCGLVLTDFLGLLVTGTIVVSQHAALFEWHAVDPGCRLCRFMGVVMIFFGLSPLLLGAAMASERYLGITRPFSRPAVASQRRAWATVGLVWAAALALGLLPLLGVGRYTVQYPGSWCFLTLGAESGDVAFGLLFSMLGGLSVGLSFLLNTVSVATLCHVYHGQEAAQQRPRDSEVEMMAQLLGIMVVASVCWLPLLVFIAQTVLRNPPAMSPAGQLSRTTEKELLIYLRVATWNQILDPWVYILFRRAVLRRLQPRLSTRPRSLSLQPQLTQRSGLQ

Assay [4] concerns the target Histamine H3 receptor (Homo sapiens, UniProt Q9Y5N1).
Assay [5] deals with T3, Alpha-1A adrenergic receptor (Homo sapiens, UniProt P35348).
T3 sequence (P35348 whole entry): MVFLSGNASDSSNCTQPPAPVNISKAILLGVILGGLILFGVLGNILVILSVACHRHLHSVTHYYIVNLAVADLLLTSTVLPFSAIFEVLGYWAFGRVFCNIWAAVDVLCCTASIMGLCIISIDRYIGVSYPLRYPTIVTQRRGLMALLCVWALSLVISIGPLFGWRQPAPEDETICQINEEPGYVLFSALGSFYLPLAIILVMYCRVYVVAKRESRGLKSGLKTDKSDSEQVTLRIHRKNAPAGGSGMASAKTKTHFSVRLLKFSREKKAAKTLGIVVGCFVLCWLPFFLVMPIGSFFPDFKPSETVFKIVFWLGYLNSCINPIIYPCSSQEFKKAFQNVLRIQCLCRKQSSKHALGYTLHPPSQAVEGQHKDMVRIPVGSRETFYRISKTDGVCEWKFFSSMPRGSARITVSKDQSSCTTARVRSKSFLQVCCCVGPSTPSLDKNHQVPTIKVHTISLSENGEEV
The assay is classed as functional, cell-based.

Assay [6] concerns the target T4, Adenosine receptor A3 (Homo sapiens, UniProt P0DMS8).
T4 sequence (P0DMS8 whole entry): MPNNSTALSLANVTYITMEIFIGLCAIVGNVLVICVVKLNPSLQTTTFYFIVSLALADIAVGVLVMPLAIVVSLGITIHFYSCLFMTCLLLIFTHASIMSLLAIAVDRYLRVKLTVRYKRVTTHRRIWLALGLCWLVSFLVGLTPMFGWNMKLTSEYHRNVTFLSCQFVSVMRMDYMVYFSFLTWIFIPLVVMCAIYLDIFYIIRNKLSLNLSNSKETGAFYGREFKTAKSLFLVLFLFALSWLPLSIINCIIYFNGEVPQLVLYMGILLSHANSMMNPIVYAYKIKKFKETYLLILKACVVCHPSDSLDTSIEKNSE

The target of assay [7] is D(1A) dopamine receptor (Homo sapiens, UniProt P21728).
Assay [8] has as its target T5, 5-hydroxytryptamine receptor 1A (Homo sapiens, UniProt P08908).
T5 sequence (P08908 whole entry): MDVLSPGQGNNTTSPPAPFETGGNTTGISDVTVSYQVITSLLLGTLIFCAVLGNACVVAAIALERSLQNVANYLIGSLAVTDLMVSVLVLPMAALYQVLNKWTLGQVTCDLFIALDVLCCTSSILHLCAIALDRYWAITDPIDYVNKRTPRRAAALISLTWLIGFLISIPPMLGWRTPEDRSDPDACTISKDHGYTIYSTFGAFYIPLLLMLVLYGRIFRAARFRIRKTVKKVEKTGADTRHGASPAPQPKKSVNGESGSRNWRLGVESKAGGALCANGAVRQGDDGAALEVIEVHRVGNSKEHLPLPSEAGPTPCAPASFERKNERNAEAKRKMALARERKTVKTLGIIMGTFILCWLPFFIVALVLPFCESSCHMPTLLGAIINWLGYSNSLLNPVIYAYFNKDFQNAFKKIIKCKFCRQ

Assay [9] addresses T6, Amine oxidase [flavin-containing] A (Homo sapiens, UniProt P21397).
T6 sequence (P21397 whole entry): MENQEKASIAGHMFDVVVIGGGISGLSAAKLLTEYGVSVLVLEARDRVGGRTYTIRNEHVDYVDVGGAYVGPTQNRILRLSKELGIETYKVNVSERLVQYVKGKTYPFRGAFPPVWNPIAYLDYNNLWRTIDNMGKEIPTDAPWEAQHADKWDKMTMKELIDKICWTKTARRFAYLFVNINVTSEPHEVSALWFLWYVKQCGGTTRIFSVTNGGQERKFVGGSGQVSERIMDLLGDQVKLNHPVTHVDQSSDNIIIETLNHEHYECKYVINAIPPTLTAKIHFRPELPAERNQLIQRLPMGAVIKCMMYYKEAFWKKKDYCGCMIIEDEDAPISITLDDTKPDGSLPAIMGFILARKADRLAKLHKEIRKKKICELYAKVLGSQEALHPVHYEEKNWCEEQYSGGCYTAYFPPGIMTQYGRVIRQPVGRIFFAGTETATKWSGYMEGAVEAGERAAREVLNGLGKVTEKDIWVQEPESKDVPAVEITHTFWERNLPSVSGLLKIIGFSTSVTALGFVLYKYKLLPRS
The assay is classed as functional.

For assay [10], the target named is Mu-type opioid receptor (Homo sapiens, UniProt P35372).
Assay [11] concerns the target Sodium-dependent dopamine transporter (Homo sapiens, UniProt Q01959).
In assay [12] the target is Sodium-dependent serotonin transporter (Homo sapiens, UniProt P31645).

A value given as a limit tells only on which side of the number the result lay.
Further: assay procedure not described here.

Chain of Sodium-dependent dopamine transporter (Q01959 whole entry): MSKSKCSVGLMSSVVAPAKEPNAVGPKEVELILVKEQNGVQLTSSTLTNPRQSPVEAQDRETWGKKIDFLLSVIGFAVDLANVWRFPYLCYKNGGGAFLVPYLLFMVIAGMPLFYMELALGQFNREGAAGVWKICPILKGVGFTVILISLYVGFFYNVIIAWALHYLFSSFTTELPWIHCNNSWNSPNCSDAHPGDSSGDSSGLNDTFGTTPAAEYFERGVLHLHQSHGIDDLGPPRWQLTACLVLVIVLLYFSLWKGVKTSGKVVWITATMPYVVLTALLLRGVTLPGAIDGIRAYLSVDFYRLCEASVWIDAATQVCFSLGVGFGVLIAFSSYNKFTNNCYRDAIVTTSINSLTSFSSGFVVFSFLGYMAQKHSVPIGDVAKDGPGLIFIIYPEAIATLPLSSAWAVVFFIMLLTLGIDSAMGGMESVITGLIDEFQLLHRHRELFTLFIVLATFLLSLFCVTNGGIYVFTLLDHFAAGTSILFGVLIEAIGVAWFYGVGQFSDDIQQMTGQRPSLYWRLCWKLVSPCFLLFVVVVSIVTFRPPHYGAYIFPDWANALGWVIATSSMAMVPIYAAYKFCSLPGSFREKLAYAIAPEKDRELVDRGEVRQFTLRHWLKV
Chain of D(1A) dopamine receptor (P21728 whole entry): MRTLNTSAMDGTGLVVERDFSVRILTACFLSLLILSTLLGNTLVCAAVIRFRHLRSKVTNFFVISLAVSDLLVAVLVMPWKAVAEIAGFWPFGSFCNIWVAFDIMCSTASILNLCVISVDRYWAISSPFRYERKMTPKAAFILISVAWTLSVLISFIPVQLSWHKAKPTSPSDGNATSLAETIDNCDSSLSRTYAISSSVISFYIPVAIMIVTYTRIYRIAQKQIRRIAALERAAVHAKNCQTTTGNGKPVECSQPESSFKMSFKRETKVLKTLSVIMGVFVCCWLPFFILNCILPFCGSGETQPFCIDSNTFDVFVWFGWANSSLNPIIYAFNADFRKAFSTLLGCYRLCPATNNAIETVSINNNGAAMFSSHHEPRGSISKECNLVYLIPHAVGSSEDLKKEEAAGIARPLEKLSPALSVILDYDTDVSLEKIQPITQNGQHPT
Chain of Cannabinoid receptor 1 (P21554 whole entry): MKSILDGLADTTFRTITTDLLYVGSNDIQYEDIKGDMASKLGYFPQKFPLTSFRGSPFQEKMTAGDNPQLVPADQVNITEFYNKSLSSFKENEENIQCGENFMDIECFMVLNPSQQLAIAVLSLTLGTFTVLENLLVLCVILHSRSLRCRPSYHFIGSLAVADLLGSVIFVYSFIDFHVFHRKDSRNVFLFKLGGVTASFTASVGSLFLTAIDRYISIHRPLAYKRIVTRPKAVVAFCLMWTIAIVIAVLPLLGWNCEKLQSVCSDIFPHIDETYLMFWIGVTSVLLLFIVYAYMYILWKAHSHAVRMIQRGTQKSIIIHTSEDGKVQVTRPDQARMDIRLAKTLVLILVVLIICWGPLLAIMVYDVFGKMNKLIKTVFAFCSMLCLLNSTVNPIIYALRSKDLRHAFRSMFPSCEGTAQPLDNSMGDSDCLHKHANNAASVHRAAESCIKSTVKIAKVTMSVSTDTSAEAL
Chain of Histamine H3 receptor (Q9Y5N1 whole entry): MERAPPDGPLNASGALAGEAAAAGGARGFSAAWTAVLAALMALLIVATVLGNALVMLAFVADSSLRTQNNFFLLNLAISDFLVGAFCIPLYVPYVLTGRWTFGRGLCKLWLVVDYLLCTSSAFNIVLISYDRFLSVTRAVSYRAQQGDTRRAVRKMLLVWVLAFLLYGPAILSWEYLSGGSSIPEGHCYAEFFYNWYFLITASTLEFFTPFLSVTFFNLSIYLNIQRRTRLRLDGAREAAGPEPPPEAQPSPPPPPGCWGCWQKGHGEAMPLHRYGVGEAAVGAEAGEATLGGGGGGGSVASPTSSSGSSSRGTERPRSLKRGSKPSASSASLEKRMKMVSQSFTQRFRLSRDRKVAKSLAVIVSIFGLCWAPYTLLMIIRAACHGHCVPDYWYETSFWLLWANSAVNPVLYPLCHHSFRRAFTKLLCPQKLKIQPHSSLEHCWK
Chain of Sodium-dependent serotonin transporter (P31645 whole entry): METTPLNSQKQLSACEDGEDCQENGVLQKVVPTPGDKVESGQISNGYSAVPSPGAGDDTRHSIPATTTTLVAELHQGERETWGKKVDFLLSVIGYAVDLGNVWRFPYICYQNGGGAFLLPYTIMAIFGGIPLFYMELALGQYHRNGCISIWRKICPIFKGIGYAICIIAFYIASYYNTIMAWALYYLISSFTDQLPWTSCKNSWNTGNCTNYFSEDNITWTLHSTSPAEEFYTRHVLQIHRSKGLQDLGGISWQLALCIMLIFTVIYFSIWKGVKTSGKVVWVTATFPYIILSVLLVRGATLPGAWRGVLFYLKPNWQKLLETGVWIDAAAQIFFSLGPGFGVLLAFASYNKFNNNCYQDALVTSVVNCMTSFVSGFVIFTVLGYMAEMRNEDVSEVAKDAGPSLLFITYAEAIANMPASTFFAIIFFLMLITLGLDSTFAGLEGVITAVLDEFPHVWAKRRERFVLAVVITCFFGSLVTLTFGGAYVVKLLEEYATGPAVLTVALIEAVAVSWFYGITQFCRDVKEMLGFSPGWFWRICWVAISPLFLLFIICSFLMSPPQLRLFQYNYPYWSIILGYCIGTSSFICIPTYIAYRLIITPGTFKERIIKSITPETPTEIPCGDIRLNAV
Chain of Mu-type opioid receptor (P35372 whole entry): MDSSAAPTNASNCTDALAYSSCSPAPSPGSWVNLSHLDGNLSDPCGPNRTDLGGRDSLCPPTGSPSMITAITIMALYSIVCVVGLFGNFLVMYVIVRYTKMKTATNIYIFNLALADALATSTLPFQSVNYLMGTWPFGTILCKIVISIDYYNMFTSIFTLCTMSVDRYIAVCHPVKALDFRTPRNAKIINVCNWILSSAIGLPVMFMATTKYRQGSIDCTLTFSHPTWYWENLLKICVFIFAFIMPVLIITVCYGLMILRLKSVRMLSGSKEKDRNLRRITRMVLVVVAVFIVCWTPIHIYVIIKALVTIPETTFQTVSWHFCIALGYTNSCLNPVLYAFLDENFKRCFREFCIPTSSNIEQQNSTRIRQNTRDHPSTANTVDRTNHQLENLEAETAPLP

As to `NCCCCCC(=O)O` [AMINOCAPROIC ACID], the AC50 in [1], in [2], in assay [3] and in assay [4] was greater than 10 µM in each case.
For the compound `CC(C)NCC(O)COc1ccc(CC(N)=O)cc1` (stereo not drawn) [ATENOLOL], the AC50 (usually the concentration giving half of the maximal activity seen) is 26 µM in [1]; greater than 30 µM in [2]; greater than 30 µM in assay [3]; greater than 30 µM in assay [5]; greater than 30 µM in assay [4].
In the case of `C[C@H](CS)C(=O)N1CCC[C@H]1C(=O)O` [CAPTOPRIL], the AC50 in [1] was greater than 10 µM; in assay [2], greater than 30 µM; in assay [5], greater than 30 µM; in assay [4], greater than 10 µM.
On to `COC(=O)CCc1ccc(OCC(O)CNC(C)C)cc1` (stereo not drawn) [ESMOLOL], for which the AC50 in [1], in assay [2], in assay [3], in assay [5] and in assay [4] was greater than 30 µM each time.
For the compound `O=C(O)[C@H](O)[C@@H](O)[C@H](O)[C@H](O)CO` [GLUCONIC ACID], the AC50 in assay [6], in assay [7], in [8], in assay [9], in assay [10] and in [11] was greater than 30 µM throughout. In assay [12], this compound had an AC50 greater than 30 µM.
Turning to `N=C(N)NCC1COc2ccccc2O1` (stereo not drawn) [GUANOXAN], the AC50 was greater than 30 µM in assay [6]; 23.4 µM in assay [7]; 1.27 µM in assay [8]; greater than 30 µM in assay [9]; greater than 30 µM in assay [10]; greater than 30 µM in [11]. This compound also came in with an AC50 in assay [12] greater than 30 µM.
As to `CCN(CCO)CCCC(C)Nc1ccnc2cc(Cl)ccc12` (stereo not drawn) [HYDROXYCHLOROQUINE], the AC50 in assay [1], in assay [2] and in assay [3] was greater than 10 µM in each case.
For the compound `N#Cc1ccnc(N2C(=O)CC[C@H]2C(=O)N(c2cncc(F)c2)[C@H](C(=O)NC2CC(F)(F)C2)c2ccccc2Cl)c1` [IVOSIDENIB], the AC50 in [6], in assay [7], in assay [8], in [9], in assay [10] and in assay [11] was greater than 30 µM throughout. This compound came in with an AC50 in assay [12] greater than 30 µM.
Turning to `O=C(c1ccccc1)c1ccc2n1CCC2C(=O)O` (stereo not drawn) [KETOROLAC], the AC50 in assay [1] was greater than 30 µM; in assay [2] it was greater than 10 µM; in assay [3], greater than 10 µM; in assay [5] it was greater than 30 µM; in [4], greater than 10 µM.
Take `CCCCCCO[C@@H](C)c1cccc(-c2csc(NC(=O)c3cc(Cl)c(/C=C(\C)C(=O)O)c(Cl)c3)n2)c1OC` [LUSUTROMBOPAG]: the AC50 in assay [6] is 0.334 µM; in assay [7], 1.54 µM; in assay [8], 6.96 µM; in [9] it was greater than 30 µM; in [10] it was greater than 30 µM; in assay [11] it was greater than 10 µM. The AC50 in [12] is greater than 30 µM.
Turning to `Cc1cc(C)cc(OCC2CNC(=O)O2)c1` (stereo not drawn) [METAXALONE], the AC50 was greater than 30 µM in assay [6]; greater than 30 µM in assay [7]; greater than 30 µM in [8]; 15.4 µM in assay [9]; greater than 30 µM in [10]; greater than 30 µM in assay [11]. The AC50 in [12] is greater than 30 µM.
On to `CC1=C(C/C=C(\C)CCC[C@H](C)CCC[C@H](C)CCCC(C)C)C(=O)c2ccccc2C1=O` [PHYTONADIONE], for which the AC50 in assay [6], in [7], in assay [8], in assay [9], in assay [10] and in assay [11] was greater than 30 µM each time. The AC50 in [12] is greater than 30 µM.
With `NC(=O)C1(N2CCCCC2)CCN(CCCC(=O)c2ccc(F)cc2)CC1` [PIPAMPERONE], the AC50 in assay [6] is greater than 30 µM; in [7], 0.258 µM; in [8] it was 11.5 µM; in [9], greater than 30 µM; in [10] it was 7.02 µM; in assay [11] it was 2.92 µM. Besides, in [12], the AC50 was determined as 15.8 µM.
With `CC(C)(Oc1ccc(Cl)cc1)C(=O)NC(=O)NCN1CCOCC1` [PLAFIBRIDE], the AC50 in [6], in [7], in assay [8], in assay [9], in [10] and in assay [11] was greater than 30 µM throughout. In addition, in assay [12], the AC50 is greater than 30 µM.
`CC(C)NC[C@H](O)COc1ccc(O)cc1` [PRENALTEROL]: the AC50 in [6], in assay [7], in assay [8], in assay [9], in assay [10] and in [11] was greater than 30 µM throughout. The compound also showed an AC50 in assay [12] greater than 30 µM.
Regarding `CCC1(c2ccccc2)C(=O)NCNC1=O` [PRIMIDONE], the AC50 in assay [1], in assay [2] and in assay [3] was greater than 10 µM throughout.
Regarding `CN1CCC(N(Cc2cccs2)c2ccccc2)CC1` [THENALIDINE], the half-maximal activity concentration (AC50) in [6] is greater than 30 µM; in assay [7] it was 11.6 µM; in assay [8], 8.65 µM; in assay [9], greater than 30 µM; in assay [10], 7.42 µM; in [11] it was 1.61 µM. The same compound yielded an AC50 in assay [12] of 18 µM.
On to `Cc1ccc(C(C)C)c(O)c1` [THYMOL], for which the AC50 in [6], in assay [7], in assay [8], in assay [9], in assay [10] and in [11] was greater than 30 µM each time. Further, the AC50 in assay [12] is greater than 30 µM.
`Cc1cccc(C)c1NC(=O)c1cc(S(N)(=O)=O)c(Cl)cc1O` [XIPAMIDE]: the half-maximal activity concentration (AC50) in [6], in assay [7], in assay [8], in [9], in assay [10] and in assay [11] was greater than 30 µM throughout. This compound yielded an AC50 in assay [12] greater than 30 µM.
